{"source": "the NIST ThermoML archive (doi:10.1016/j.tca.2019.178308)", "key": {"[1]": {"experiment": "wn = mass fraction of the nth substance listed", "conditions": "304.15 K, 100 kPa, Liquid, transient hot wire"}, "[2]": {"conditions": "304.15 K; 100 kPa; Liquid; transient hot wire"}}, "note": "± gives the expanded uncertainty stated by the source.", "data": [{"smiles": "CCCCCCCCCCCCOS(=O)(=O)[O-].[Na+]", "note": "[sodium dodecyl sulfate] + O", "values": [{"measurement": "thermal conductivity", "setting": "[1]; w1 = 0.001", "result": "0.589 ± 0.024", "unit": "W/m/K"}, {"measurement": "thermal conductivity", "setting": "[1]; w1 = 0.003", "result": "0.538 ± 0.022", "unit": "W/m/K"}, {"measurement": "thermal conductivity", "setting": "[1]; w1 = 0.005", "result": "0.537 ± 0.022", "unit": "W/m/K"}, {"measurement": "thermal conductivity", "setting": "[1]; w1 = 0.007", "result": "0.499 ± 0.02", "unit": "W/m/K"}]}, {"smiles": "O", "note": "[water]", "values": [{"measurement": "thermal conductivity", "setting": "[2]", "result": "0.613 ± 0.025", "unit": "W/m/K"}]}, {"smiles": "O", "note": "[water] + CCCCCCCCCCCCOS(=O)(=O)[O-].[Na+]", "values": [{"measurement": "thermal conductivity", "setting": "[1]; w2 = 0", "result": "0.613 ± 0.025", "unit": "W/m/K"}]}]}
